Reference: patent US9205121B2, “Echinacea formulation” (Integria Healthcare (Australia) PTY LTD, priority 2004, dated 2015)
Blank lines part the entries; values can stand above or below the compound they belong to.

Key:
human liver microsomes = type: in vitro ADME
Method: Livers were obtained from organ donors according to procedures is approved by the University of Queensland ethics committees. Samples of human liver were frozen in liquid nitrogen and stored at −70° C. prior to use. Microsomes were prepared according to the method of Guengerich except that microsomes were subjected to a final wash in 10 mM Tris-acetate, 1 mM EDTA and 20% glycerol pH 7.4 (resuspension buffer) to remove residual drugs (e.g. phenytoin—data not shown) present in donor livers.
Incubations (0.5 mL) with tissue fractions contained either the microsomal fraction at […] or the cytosolic fraction at 5 mg/mL protein in 100 mM potassium phosphate (pH 7.4) supplemented with is substrates (synthetic alkylamides 6, 11, 3 and 12 or the alkylamide fraction from the ethanolic liquid as required—see Figure legends for concentrations used) added from ethanolic stocks. Final ethanol concentrations were either 0.70% or 0.96% and were consistent in each assay. Reactions were initiated by the addition of an NADPH-generating system consisting of (final concentrations) […] NADP+, 10 mM glucose-6-phosphate and 0.5 μ/mL glucose-6-phosphate dehydrogenase. Negative controls and cytosolic incubations lacked an NADPH-generating system. Reaction mixtures were incubated at 37° C. with gentle agitation for the duration of each experiment. Reactions were terminated by addition of an equal volume of 100% methanol to a sample aliquot. Diluted samples were then centrifuged at 16000×g for 2 minutes and supernatants stored at −20° C. until analysis by LCMS.
Alkylamide concentrations in samples were determined by LCMS using a gradient HPLC system (Shimadzu LC1OAT) coupled to a quadrupole mass spectrometer (Shimadzu, QP8000a) operating in positive SIM mode with an APCI interface. The mobile phases were a mixture of water and acetonitrile. Alkylamides 6 and 3 were detected using a 65% acetonitrile isocratic run. Alkylamides 11 and 12 were detected using an 85% acetonitrile isocratic run. The alkylamide fraction was analysed using a gradient that increased from 20% to 40% acetonitrile over the first 5 minutes, then to 80% acetonitrile over the following 15 minutes and to 100% over the next 3 minutes followed by a re-equilibration period at 20% acetonitrile prior to the next injection. A similar gradient was used in scan and then SIM (M+1 of 248, 264, 246, 192, 280 and 282) modes to identify metabolites of 3. A C18, 3 m, 100×2.00 mm Phenomenex Luna column was used with a solvent flow rate of 0.3 mL/minute. All alkylamides were linear in the range 0.001-10 mg/mL (R^2>0.9) with a coefficient of variation between 4 and 5.
A number of pure, synthetic alkylamides (6, 11 3 and 12 as shown in FIG. 1) as well as the complex mixture of alkylamides obtained from an ethanolic extract of Echinacea were investigated for their susceptibility to liver P450-mediated degradation in microsomal preparations from four different subjects. The concentration of each substrate remaining at the given time points was quantified with LCMS and rates of substrate depletion were calculated as a percentage of the original concentration. […] From FIG. 3 it can be seen that there was a clear difference in the ability of the liver microsomal P450s to metabolise the synthetic 2-ene and the 2,4-diene alkylamides. […] In contrast, the 2,4-dienes were rapidly metabolised with only 9±2% of the original concentration of 3 and 2±1% of the original concentration of 12 detected after 2 hours. […]

TNF-α = TNF-α production under LPS stimulated conditions in macrophages; type: cell-based, mouse; conditions: RAW 264.7 macrophages
Source text: Macrophages play an essential role in the development of specific and non-specific immune responses. Upon activation by a variety of stimuli macrophages release a number of products having biological activity. Such products include cytokines, such as TNF-α, […] and nitric oxide (NO). Macrophages undergo a process of cellular “activation” which is associated with morphological, functional, and biochemical changes in the cells in response to inflammatory signals or antigens. One prominent characteristic of activated macrophages is their increased capacity to release pro-inflammatory and cytotoxic mediators, which help aid in the resolution of infection or inflammation. As a prelude to macrophage activation LPS must bind to a receptor on the macrophage cell surface. Several LPS receptors have been identified in different macrophages with the most thoroughly studied receptor being the CD14 receptor.
The synthetic alkylamides correspond to the major 2-ene and 2,4-diene alkylamides found in Echinacea. These alkylamides are illustrated in FIG. 1 as compounds 6 and 3 respectively.

phagocytosis = conditions: in vitro and in vivo; cited from earlier work

% of initial levels still present (human liver microsomes; human, 2 h, pH 7.4): 91±24%
SMILES: C#CC#CCCCC/C=C/C(=O)NCC(C)C [alkylamide 6, (2E)-N-isobutylundeca-2-ene-8,10-diynamide]

SMILES: CC#CC#CCCCC/C=C/C(=O)NCC(C)C [alkylamide 11, (2E)-N-isobutyldodeca-2-ene-8,10-diynamide]
rate of alkylamide metabolism relative to the rate found for 6 (human liver microsomes): two fold higher

rate of alkylamide metabolism relative to the rate found for 6 (human liver microsomes): ten fold higher
SMILES: CCCCCCC/C=C/C=C/C(=O)NCC(C)C [alkylamide 12, (2E-4E)-N-isobutyldodea-2,4-dienamide]

SMILES: O=C(/C=C/c1ccc(O)c(O)c1)O[C@@H](C(=O)O)[C@@H](OC(=O)/C=C/c1ccc(O)c(O)c1)C(=O)O [cichoric acid]
TNF-α production under LPS stimulated conditions (TNF-α): significantly decreased
stimulation of phagocytosis (phagocytosis): marked stimulation
